# Reference: ChEMBL document CHEMBL1125961, “Monodeoxy-1,4:3,6-dianhydrohexitol nitrates” (1991)
# Activity calls are given as the source filed them. The calls are words filed in the database; no cut-off is given here.
# How the values were obtained:
# Oryctolagus cuniculus = species on record: Oryctolagus cuniculus; assay: Compound was evaluated for reduction of arterial medium pressure of rabbit by 30 mm Hg; type: functional, Artery
# Rattus norvegicus [1] = assay: Compound was evaluated for T-wave increase of rat EKG measured as percent reduction after 30 min at a dosage of 60 mg/kg; type: functional
# Rattus norvegicus [2] = assay: Compound was evaluated for T-wave increase of rat EKG measured as percent reduction after 30 min at a dosage of 200 mg/kg; type: functional
# Rattus norvegicus [3] = assay: Compound was evaluated for T-wave increase of rat EKG measured as percent reduction after 30 min at a dosage of 100 mg/kg; NE means no effect; type: functional, organism-based; set-up: dose 100 mg/kg
# Rattus norvegicus [4] = assay: Compound was evaluated for T-wave increase of rat EKG measured as percent reduction after 30 min at a dosage of 4 mg/kg; type: functional
# Rattus norvegicus [5] = assay: Compound was evaluated for T-wave increase of rat EKG measured as percent reduction after 30 min at a dosage of 8 mg/kg; type: functional
# [6] = Oryctolagus cuniculus, Artery, read-out: ED30
SMILES,ED30 (Oryctolagus cuniculus),ED30 (Oryctolagus cuniculus; [6]),also measured
"O=[N+]([O-])OC1CO[C@@H]2C(O)CO[C@H]12 (single isomer, unassigned) [ISOSORBIDE MONONITRATE]",3.43 mg/kg,–,Reduction (Rattus norvegicus [1]): -43%
O=[N+]([O-])OC1COC2C1OC[C@@H]2Cl (stereo in doubt; 5a),–,0.1 mg/kg,Reduction (Rattus norvegicus [2]): -38%
O=[N+]([O-])OC1COC2C1OC[C@@H]2Cl (stereo in doubt; 5b) [listing 1 of 2 here],0.14 mg/kg,–,–
O=[N+]([O-])OC1COC2C1OC[C@@H]2Cl (stereo in doubt; 5b) [listing 2 of 2 here],–,–,Reduction (Rattus norvegicus [3]): inactive
O=[N+]([O-])OC1COC2CCOC21 (stereo in doubt; 6a),–,0.6 mg/kg,Reduction (Rattus norvegicus [2]; 200 mg/kg): -38%
O=[N+]([O-])OC1COC2CCOC21 (stereo in doubt; 6b),1 mg/kg,–,Reduction (Rattus norvegicus [2]; 200 mg/kg): -33%
O=[N+]([O-])O[C@H]1CO[C@H]2[C@@H]1OC[C@H]2O[N+](=O)[O-] [ISOSORBIDE DINITRATE],–,0.08 mg/kg,Reduction (Rattus norvegicus [4]): -75%
O=[N+]([O-])O[C@@H]1CO[C@H]2[C@@H]1OC[C@@H]2O [ISOSORBIDE MONONITRATE],0.31 mg/kg,–,Reduction (Rattus norvegicus [5]): -59%
